Experiment [1] is described as follows: Concentration required for inhibition of 5-alpha-Dihydrotestosterone (DHT) stimulated shionogi cell proliferation was determined. It is filed as functional. The settings on record: Mus musculus.
The nature of experiment [2]: Concentration required for inhibition of 5-alpha-Dihydrotestosterone (DHT) stimulated shionogi cell proliferation was determined; No activity was observed at 1 uM. Type of experiment: functional. The settings on record: Mus musculus.

Bounds are passed on as bounds.

As to `CN1C(=O)C=C[C@]2(C)C3CC[C@@]4(C)C(CC[C@@]4(O)C#CCCCl)C3CCC12` (some centres not stated), in experiment [1], the IC50 is 94.5 nM. In experiment [1], `CN1C(=O)C=C[C@]2(C)C3CC[C@@]4(C)C(CC[C@@]4(O)C#CCCI)C3CCC12` (some centres not stated) gave an IC50 of 96.8 nM. Still for that read-out and setting: the figure for `CC(C)(O)C(=O)Nc1ccc([N+](=O)[O-])c(C(F)(F)F)c1` [HYDROXYFLUTAMIDE] is 52.5 nM.

The compound `CN1C(=O)C=C[C@]2(C)C3CC[C@@]4(C)C(CC[C@@]4(O)C#CCCO)C3CCC12` (some centres not stated) registered an IC50 in experiment [2] greater than 1000 nM.

`CN1C(=O)CC[C@]2(C)C3CC[C@@]4(C)C(CC[C@@]4(O)C#CCCCCl)C3CCC12` (some centres not stated) came in with a half-maximal inhibitory concentration (IC50) in experiment [1] of 129 nM. As to `CN1C(=O)CC[C@]2(C)C3CC[C@@]4(C)C(CC[C@@]4(O)C#CCCCO)C3CCC12` (some centres not stated), the IC50 in experiment [2] was greater than 1000 nM. Regarding `CN1C(=O)C=C[C@]2(C)C3CC[C@@]4(C)C(CC[C@@]4(O)C#CCCCO)C3CCC12` (some centres not stated), the IC50 in experiment [2] was greater than 1000 nM. `CN1C(=O)CC[C@]2(C)C3CC[C@@]4(C)C(CC[C@@]4(O)C#CCCCBr)C3CCC12` (some centres not stated) showed a half-maximal inhibitory concentration (IC50) in experiment [1] of 325 nM.

Compound `CN1C(=O)CC[C@]2(C)C3CC[C@@]4(C)C(CC[C@@]4(O)C#CCCCl)C3CCC12` (some centres not stated) registered a 50% inhibitory concentration (IC50) in experiment [1] of 250 nM.

With `CN1C(=O)C=C[C@]2(C)C3CC[C@@]4(C)C(CC[C@@]4(O)C#CCCCBr)C3CCC12` (some centres not stated), 149 nM corresponded to half-maximal inhibition in experiment [1] (IC50). Turning to `CN1C(=O)CC[C@]2(C)C3CC[C@@]4(C)C(CC[C@@]4(O)C#CCCBr)C3CCC12` (some centres not stated), the IC50 in experiment [1] was 279 nM. As to `CN1C(=O)C=C[C@]2(C)C3CC[C@@]4(C)C(CC[C@@]4(O)C#CCCCCl)C3CCC12` (some centres not stated), the IC50 in experiment [1] stood at 67.2 nM. For the compound `CN1C(=O)CC[C@]2(C)C3CC[C@@]4(C)C(CC[C@@]4(O)C#CCCI)C3CCC12` (some centres not stated), the concentration for half-maximal inhibition (IC50) in experiment [1] was determined as 160 nM. Take `CN1C(=O)CC[C@]2(C)C3CC[C@@]4(C)C(CC[C@@]4(O)C#CCCCI)C3CCC12` (some centres not stated): in experiment [1], the IC50 is 328 nM. Compared with the last compound, the IC50 is about 2-fold higher.

With `CN1C(=O)C=C[C@]2(C)C3CC[C@@]4(C)C(CC[C@@]4(O)C#CCCBr)C3CCC12` (some centres not stated), the 50% inhibitory concentration (IC50) in experiment [1] amounted to 142 nM. Compound `CN1C(=O)C=C[C@]2(C)C3CC[C@@]4(C)C(CC[C@@]4(O)C#CCCCI)C3CCC12` (some centres not stated) returned an IC50 in experiment [1] of 179 nM. Take `CN1C(=O)CC[C@]2(C)C3CC[C@@]4(C)C(CC[C@@]4(O)C#CCCO)C3CCC12` (some centres not stated): the IC50 in experiment [2] was greater than 1000 nM.

For orientation: IC50 means the midpoint of a concentration-inhibition curve.
